Entries after “also recorded” stand apart in the source; their conditions may differ.
Tests used:
[1] = system: ZR75-1; test: Growth inhibition, drug combination; assay type: cell-based, human; settings: for Growth inhibiting interaction with CB-839: 72 h
[2] = system: BT474; test: Growth inhibition, drug combination; assay type: cell-based, human; settings: for Growth inhibiting interaction with CB-839: 72 h
[3] = system: MCF7; test: Growth inhibition / cell viability, drug combination; assay type: cell-based, human; settings: for Growth inhibiting interaction with CB-839: 72 h; for Cell viability, interaction with CB-839: MCF7, single dose, 48 h
[4] = system: DU4475; test: as above; assay type: cell-based, human; settings: for Growth inhibiting interaction with CB-839: 72 h
[5] = system: PRODH; test: Dietary PPG in adult Drosophila, Sluggish-A phenotype; assay type: in vivo; settings: dietary 5 mM x 48 h
[6] = system: Drosophila; test: Drosophila lifespan after dietary PPG during oogenesis; assay type: in vivo; settings: dietary 5 mM x 24 h during oogenesis, 2nd day collected eggs, 70 days
Description: Female Drosophila were starved for 4 h, then combined with males on liquid 5% sucrose food with or without 5 mM PPG. After 24 h, females were transferred to egg collection containers, and eggs collected after 1, 2, and 3 days. Collected eggs were transferred to bottles of regular food, separately for each collection day. Larvae developed normally, were transferred to vials after eclosion; vials were exchanged thrice weekly throughout life.

[7] = system: breast cancer models; test: Interaction of PRODH inhibitors with p53 wt restoration; assay type: cell-based, human; settings: various breast cancer models
From the text: Our recent studies have shown that p53 wt restoration by the MDM2 inhibitor MI-63 triggers early and very different mitochondrial bioenergetic and global metabolic pool changes between malignant (e.g., MCF7, ZR-75-1, ZR-75-30, DU4475) and non-malignant (e.g., MCF-10A) mammary epithelial systems (Yau et al. (2011) Amer. Assoc. Cancer Res. 52: a3797, 2011; Yau et al. (2012) Amer. Assoc. Cancer Res. 53: a5160). Having first observed that PRODH siRNA knockdown promotes apoptosis in p53 wt breast cancer cells, we then evaluated PRODH knockdown in combination with MI-63 induced p53 restoration. […] Knockdown of P5CDH (the next enzymatic step in proline catabolism) produced a similar but less pronounced pro-apoptotic response in combination with MI-63, convincing us that PRODH is the most appropriate therapeutic target for synthetic lethality. […] Equally relevant, since PRODH provides a bypass source of mitochondrial glutamate for glutamine-addicted (e.g., GLS1 overexpressing) cancers, particularly those most sensitive to clinically emergent GLS1 inhibitors like CB-839 (Katt and Cerione (2014) Drug Discov. Today, 19: 450-457; Gross et al. (2014) Mol. Cancer Ther. 13: 890-901), our new data also supports the fact that PRODH inhibition induces a synthetic lethal anticancer response in combination with GLS1 inhibition among our various breast cancer models.

[8] = system: ZR-75-1; test: Protein degradation in treated culture (Western blot); assay type: cell-based, human
[9] = system: MCF10A cells; test: Cell viability, non-malignant cells; assay type: cell-based, human
[10] = system: multiple breast cancer cell lines; test: Growth inhibition in combination with CB-839; assay type: cell-based, human
[11] = target: T1, PRODH (Homo sapiens, UniProt O43272); test: NADH-generating mitochondrial PRODH bioassay; assay type: biochemical
T1 construct: Mitochondria freshly isolated from PPG pretreated (15 h) and washed (30 min) ZR-75-1 cells; endogenous in cells; host or cells: mitochondria isolated from ZR-75-1 human breast cancer cells
T1 sequence (O43272 1-600): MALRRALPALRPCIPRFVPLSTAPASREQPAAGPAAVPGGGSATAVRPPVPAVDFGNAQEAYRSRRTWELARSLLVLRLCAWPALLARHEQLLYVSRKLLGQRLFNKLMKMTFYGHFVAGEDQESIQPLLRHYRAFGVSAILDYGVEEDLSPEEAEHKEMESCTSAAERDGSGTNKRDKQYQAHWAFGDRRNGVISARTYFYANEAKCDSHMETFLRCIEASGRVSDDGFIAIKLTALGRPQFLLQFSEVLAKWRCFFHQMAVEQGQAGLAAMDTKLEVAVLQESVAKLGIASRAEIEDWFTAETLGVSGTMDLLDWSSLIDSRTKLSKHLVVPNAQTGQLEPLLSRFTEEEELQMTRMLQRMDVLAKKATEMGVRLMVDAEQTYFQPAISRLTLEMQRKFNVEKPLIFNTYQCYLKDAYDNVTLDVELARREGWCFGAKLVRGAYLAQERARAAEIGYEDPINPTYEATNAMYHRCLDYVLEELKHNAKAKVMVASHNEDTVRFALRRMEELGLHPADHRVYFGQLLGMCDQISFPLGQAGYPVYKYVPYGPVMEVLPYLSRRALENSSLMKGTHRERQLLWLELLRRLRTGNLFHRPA
From the text: Mitochondrial PRODH bioassays capable of measuring inhibitor activity are described in Goncalves et al. (2014) Redox Biol. 2: 901-909 (which is hereby incorporated by reference herein for this description). These include, inter alia: i) spectrophotometric detection of OAB reacted with proline generated P5C, ii) dual wavelength spectrophotometric detection (A566-A575) of endogenous cytochrome b566 reduction that occurs directly upon mitochondrial PRODH oxidation of proline, and iii) fluorescence spectrometry detection (lex 340 nm, lem 460 nm) of mitochondrial NADH levels as a function of substrate and inhibitor treatment. See details in Example below. The mitochondrial PRODH assay is described therein detects mitochondrial NADH production resulting downstream from PRODH production of P5C and then glutamate, while controlling for other sources of mitochondrial NADH production.
We have optimized our mitochondrial preparation technique and developed three different mitochondrial PRODH bioassays capable of measuring inhibitor activity which are now reported (Goncalves et al. (2014) Redox Biol. 2: 901-909); these include: i) spectrophotometric detection of OAB reacted with proline generated P5C, ii) dual wavelength spectrophotometric detection (A566-A575) of endogenous cytochrome b566 reduction that occurs directly upon mitochondrial PRODH oxidation of proline, and iii) fluorescence spectrometry detection (lex 340 nm, lem 460 nm) of mitochondrial NADH levels as a function of substrate and inhibitor treatment.
Briefly, in an exemplary protocol, cells are harvested from 2 to 4500 cm^2 dishes at 90% confluence, washed three times in ice-cold STE (250 mM sucrose, 5 mM Tris-HCl, 2 mM EGTA, pH7.4), scraped off, suspended in 50 ml STE and centrifuged for 10 min at 500 g. The pellet is resuspended in STE supplemented with 1% (w/v) fatty acid-free bovine serum albumin and homogenized (up to 20 strokes). The suspension is brought to 50 ml and centrifuged for 5 min at 1000 g. The supernatant is centrifuged for 10 min at 11,000 g. The pellet is resuspended in STE and centrifuged for 10 min at 10,000 g. The mitochondrial pellet is resuspended in STE and kept on ice. Protein is determined by Bradford assay(Biorad).
NAD(P)H is measured using 0.3 mg mitochondrial protein/ml at 37° C. in KHEPMB (KHE containing 5 mM K2HPO4, 2 mM MgCl2, 0.3% (w/v) fatty acid-free bovine serum albumin) plus 1 mM ADP and 2.5 μg/ml oligomycin. The reduction state of endogenous NAD(P)H Is determined by autofluorescence using the Pherastar microplate reader at λexcitation=340 nm, λemission=460 nm. NAD(P)H was assumed to be 0% reduced after 5 min without added substrate, then rotenone was added. The 100% reduced level was established with saturating substrate (e.g., 5 mM malate, glutamate and proline) and 4 μM rotenone. Intermediate values were determined as % reduced NAD(P)H relative to the 0% and 100% values.
For screening purposes, the NADH fluorescence bioassay can be routinely used as it is the most sensitive and amenable to higher throughput.

[12] = system: DU4475 breast cancer cells; test: Apoptosis by cleaved PARP Western blot; assay type: cell-based, human; settings: DU4475, combined with MI-63
[13] = target: PRODH; settings: cited from earlier work
[14] = system: malignant breast epithelial cells; test: Protein levels after p53 restoration by MI-63; assay type: cell-based, human
From the text: New cancer treatments based on the restoration or reactivation of p53 wt function were first envisioned over a decade ago, and multiple pharmacological strategies have since emerged from preclinical studies that now show great clinical promise (12-17), particularly against malignancies like breast cancers in which 75% of all newly diagnosed cases express wildtype p53 (TCGA Network (2012). Nature 490: 61-70). […] Likewise, p53 induced metabolic changes linking proline metabolism to the urea cycle (OAT) and to glutaminolysis (GLS2) and the TCA cycle have been observed in our model systems (Yau et al. (2012) Amer. Assoc. Cancer Res. 53: a5160).

[15] = ZR-75-1 cells pretreated 15 h, washed 30 min

COc1ccc(C2=N[C@@H](c3ccc(Cl)cc3)[C@@H](c3ccc(Cl)cc3)N2C(=O)N2CCNC(=O)C2)c(OC(C)C)c1 [Nutlin-3a, reference compound]
Growth inhibiting interaction with CB-839 ([1]; ZR75-1, +Nutlin-3a (5 μM)): Additive
Growth inhibiting interaction with CB-839 ([2]; BT474, +Nutlin-3a (5 μM)): No interaction
Growth inhibiting interaction with CB-839 ([3]; MCF7, +Nutlin-3a (5 μM)): Additive
Growth inhibiting interaction with CB-839 ([4]; DU4475, +Nutlin-3a (5 μM)): Synergistic

C#CCNCC(=O)O [PPG, N-propargylglycine]
Fly viability [5]: without loss of fly viability
PRODH inhibition in vivo (Sluggish-A phenotype) [5]: completely inhibits PRODH in vivo
Median and maximum lifespan [6]: significantly extends median and maximum lifespan
Interaction with p53 wt restoration [7]: synthetic lethal interactions
Cell viability, interaction with CB-839 [3]: additive interactions
Time of exposure to PRODH protein degradation [8]: ≤ 24 h
Cytoplasmic FAD containing protein MTHFR decline ([8]; ZR-75-1, 24-72 h): does not
Mitochondrial complex-1 protein NDUFS1 level ([8]; ZR-75-1, 24-72 h): also declines
Degradation of PRODH protein ([8]; ZR-75-1 culture treatment, within 24-72 h): 30-60%
Cell viability / growth inhibition in non-malignant cells ([9]; combined with CB-839): no treatment effects; also recorded: lack of any growth inhibition
Growth inhibition in combination with CB-839 ([10]; within 48 h): additive growth inhibition
Growth inhibition in combination with CB-839 ([10]; within 72 h): synergistic growth inhibition
PRODH enzymatic inhibition compared at equimolar inhibitor concentration ([11]; 2 mM): significantly greater PRODH enzymatic inhibition over S-5-oxo
Malate metabolism (NADH formation) by isolated mitochondria [11, 15]: not affected; also recorded: fully capable of metabolizing malate
Proline metabolism (NADH formation) by isolated mitochondria [11, 15]: remain unable to metabolize proline; also recorded: remained completely unable to metabolize proline

O=C(O)[C@@H]1CCCO1 [L-THFA, L-tetrahydro-2-furoic acid]
Apoptosis (c PARP production) over MI-63 treatment alone [12]: ~4 fold
Ki [13]: 300 µM
Interaction with p53 wt restoration [7]: synthetic lethal interactions
Viable cell growth in culture ([4]; DU4475, combined with MI-63): synthetic lethality effectiveness; also recorded: synergistically reduces viable cell growth

O=C1CC[C@@H](C(=O)O)O1 [Compound 5-oxo, (S)-(+)-5-oxo-2-tetrahydrofurancarboxylic acid]
Treatment interaction ([1]; ZR75-1, 5-oxo (1 μM) + CB839 (1 μM)): Synergistic
Growth inhibiting interaction with CB-839 ([1]; ZR75-1, +5-oxo (5 mM)): Synergistic
Treatment interaction ([2]; BT474, 5-oxo (1 μM) + CB839 (1 μM)): Additive
Growth inhibiting interaction with CB-839 ([2]; BT474, +5-oxo (5 mM)): Additive
Interaction with p53 wt restoration [7]: synthetic lethal interactions
Treatment interaction ([3]; MCF7, 5-oxo (1 μM) + CB839 (1 μM)): Synergistic
Growth inhibiting interaction with CB-839 ([3]; MCF7, +5-oxo (5 mM)): Synergistic
Cell viability, interaction with CB-839 [3]: additive interactions
Cell viability / growth inhibition in non-malignant cells ([9]; combined with CB-839): no treatment effects
Cell viability / growth inhibition in non-malignant cells ([9]; combined with CB-839, listed as S-5-oxo): lack of any growth inhibition
Treatment interaction ([4]; DU4475, 5-oxo (1 μM) + CB839 (1 μM)): Synergistic
Growth inhibiting interaction with CB-839 ([4]; DU4475, +5-oxo (5 mM)): Synergistic
Growth inhibition in combination with CB-839 ([10]; within 48 h): additive growth inhibition
Growth inhibition in combination with CB-839 ([10]; within 72 h): synergistic growth inhibition
S versus R isomers in mitochondrial PRODH bioassay [11]: stereospecificity of S-5-oxo
PRODH enzymatic inhibition after washout ([11]; same washout (30 min)): completely lost (reversed); also recorded: completely lost by washout

C#CC(C)NCC(=O)O (racemic) [(R/S)-PPG]
PRODH inhibiting activity ([11]; mitochondrial PRODH assay): retains PRODH inhibiting activity

CC(C)(C)C[C@H]1N[C@@H](C(=O)NCCN2CCOCC2)[C@H](c2cccc(Cl)c2F)[C@@]12C(=O)Nc1cc(Cl)ccc12 [MI-63]
Induction of PRODH protein levels [14]: ≥ 5 fold
P5C reductase (PYCR1) levels [14]: coordinate decrease
P5CDH protein level [14]: no change

— US10517844B2, “Inhibition of proline catabolism for the treatment of cancer and other therapeutic applications” (Buck Institute for Research on Aging, priority 2014, dated 2019)
